Data published in BigSolDB 2.1.

SMILES: Nc1c([N+](=O)[O-])c2no[n+]([O-])c2c2no[n+]([O-])c12
- solubility (mole fraction) (in 1,2-dichloroethane, 288.15 K): 2.98e-05
- solubility (mole fraction) (in 1,2-dichloroethane, 293.15 K): 3.64e-05
- solubility (mole fraction) (in 1,2-dichloroethane, 298.15 K): 4.41e-05
- solubility (mole fraction) (in 1,2-dichloroethane, 303.15 K): 5.31e-05
- solubility (mole fraction) (in 1,2-dichloroethane, 308.15 K): 6.32e-05
- solubility (mole fraction) (in 1,2-dichloroethane, 313.15 K): 7.49e-05
- solubility (mole fraction) (in 1,2-dichloroethane, 318.15 K): 8.9e-05
- solubility (mole fraction) (in 1,2-dichloroethane, 323.15 K): 0.000105
- solubility (mole fraction) (in 1,2-dichloroethane, 328.15 K): 0.000122
- solubility (mole fraction) (in 1,2-dichloroethane, 333.15 K): 0.000142
- solubility (mole fraction) (in DMF, 288.15 K): 0.00618
- solubility (mole fraction) (in DMF, 293.15 K): 0.00747
- solubility (mole fraction) (in DMF, 298.15 K): 0.00896
- solubility (mole fraction) (in DMF, 303.15 K): 0.0107
- solubility (mole fraction) (in DMF, 308.15 K): 0.0126
- solubility (mole fraction) (in DMF, 313.15 K): 0.0149
- solubility (mole fraction) (in DMF, 318.15 K): 0.0175
- solubility (mole fraction) (in DMF, 323.15 K): 0.0204
- solubility (mole fraction) (in DMF, 328.15 K): 0.0236
- solubility (mole fraction) (in DMF, 333.15 K): 0.0273
- solubility (mole fraction) (in DMSO, 293.15 K): 0.0118
- solubility (mole fraction) (in DMSO, 298.15 K): 0.0138
- solubility (mole fraction) (in DMSO, 303.15 K): 0.0161
- solubility (mole fraction) (in DMSO, 308.15 K): 0.0187
- solubility (mole fraction) (in DMSO, 313.15 K): 0.0217
- solubility (mole fraction) (in DMSO, 318.15 K): 0.0249
- solubility (mole fraction) (in DMSO, 323.15 K): 0.0286
- solubility (mole fraction) (in DMSO, 328.15 K): 0.0327
- solubility (mole fraction) (in DMSO, 333.15 K): 0.0373
- solubility (mole fraction) (in NMP, 288.15 K): 0.00799
- solubility (mole fraction) (in NMP, 293.15 K): 0.00948
- solubility (mole fraction) (in NMP, 298.15 K): 0.0112
- solubility (mole fraction) (in NMP, 303.15 K): 0.0131
- solubility (mole fraction) (in NMP, 308.15 K): 0.0153
- solubility (mole fraction) (in NMP, 313.15 K): 0.0178
- solubility (mole fraction) (in NMP, 318.15 K): 0.0206
- solubility (mole fraction) (in NMP, 323.15 K): 0.0237
- solubility (mole fraction) (in NMP, 328.15 K): 0.0272
- solubility (mole fraction) (in NMP, 333.15 K): 0.031
- solubility (mole fraction) (in acetic acid, 293.15 K): 7.86e-05
- solubility (mole fraction) (in acetic acid, 298.15 K): 9.36e-05
- solubility (mole fraction) (in acetic acid, 303.15 K): 0.000112
- solubility (mole fraction) (in acetic acid, 308.15 K): 0.000131
- solubility (mole fraction) (in acetic acid, 313.15 K): 0.000154
- solubility (mole fraction) (in acetic acid, 318.15 K): 0.000178
- solubility (mole fraction) (in acetic acid, 323.15 K): 0.000206
- solubility (mole fraction) (in acetic acid, 328.15 K): 0.000237
- solubility (mole fraction) (in acetic acid, 333.15 K): 0.000271
- solubility (mole fraction) (in acetone, 288.15 K): 0.000797
- solubility (mole fraction) (in acetone, 293.15 K): 0.00087
- solubility (mole fraction) (in acetone, 298.15 K): 0.000968
- solubility (mole fraction) (in acetone, 303.15 K): 0.00109
- solubility (mole fraction) (in acetone, 308.15 K): 0.00123
- solubility (mole fraction) (in acetone, 313.15 K): 0.00137
- solubility (mole fraction) (in acetone, 318.15 K): 0.00154
- solubility (mole fraction) (in acetone, 323.15 K): 0.00174
- solubility (mole fraction) (in acetonitrile, 288.15 K): 0.000322
- solubility (mole fraction) (in acetonitrile, 293.15 K): 0.000374
- solubility (mole fraction) (in acetonitrile, 298.15 K): 0.000434
- solubility (mole fraction) (in acetonitrile, 303.15 K): 0.000497
- solubility (mole fraction) (in acetonitrile, 308.15 K): 0.00057
- solubility (mole fraction) (in acetonitrile, 313.15 K): 0.000654
- solubility (mole fraction) (in acetonitrile, 318.15 K): 0.000744
- solubility (mole fraction) (in acetonitrile, 323.15 K): 0.000845
- solubility (mole fraction) (in acetonitrile, 328.15 K): 0.000956
- solubility (mole fraction) (in acetonitrile, 333.15 K): 0.00108
- solubility (mole fraction) (in cyclohexanone, 288.15 K): 0.0018
- solubility (mole fraction) (in cyclohexanone, 293.15 K): 0.00198
- solubility (mole fraction) (in cyclohexanone, 298.15 K): 0.00218
- solubility (mole fraction) (in cyclohexanone, 303.15 K): 0.0024
- solubility (mole fraction) (in cyclohexanone, 308.15 K): 0.00266
- solubility (mole fraction) (in cyclohexanone, 313.15 K): 0.00295
- solubility (mole fraction) (in cyclohexanone, 318.15 K): 0.00328
- solubility (mole fraction) (in cyclohexanone, 323.15 K): 0.00366
- solubility (mole fraction) (in cyclohexanone, 328.15 K): 0.00409
- solubility (mole fraction) (in cyclohexanone, 333.15 K): 0.00457
- solubility (mole fraction) (in dichloromethane, 288.15 K): 1.37e-05
- solubility (mole fraction) (in dichloromethane, 293.15 K): 1.73e-05
- solubility (mole fraction) (in dichloromethane, 298.15 K): 2.15e-05
- solubility (mole fraction) (in dichloromethane, 303.15 K): 2.68e-05
- solubility (mole fraction) (in dichloromethane, 308.15 K): 3.31e-05
- solubility (mole fraction) (in ethanol, 288.15 K): 6.85e-06
- solubility (mole fraction) (in ethanol, 293.15 K): 8.94e-06
- solubility (mole fraction) (in ethanol, 298.15 K): 1.18e-05
- solubility (mole fraction) (in ethanol, 303.15 K): 1.52e-05
- solubility (mole fraction) (in ethanol, 308.15 K): 1.95e-05
- solubility (mole fraction) (in ethanol, 313.15 K): 2.47e-05
- solubility (mole fraction) (in ethanol, 318.15 K): 3.14e-05
- solubility (mole fraction) (in ethanol, 323.15 K): 3.94e-05
- solubility (mole fraction) (in ethanol, 328.15 K): 4.92e-05
- solubility (mole fraction) (in ethanol, 333.15 K): 6.02e-05
- solubility (mole fraction) (in ethyl acetate, 288.15 K): 0.000211
- solubility (mole fraction) (in ethyl acetate, 293.15 K): 0.000244
- solubility (mole fraction) (in ethyl acetate, 298.15 K): 0.00028
- solubility (mole fraction) (in ethyl acetate, 303.15 K): 0.000321
- solubility (mole fraction) (in ethyl acetate, 308.15 K): 0.000367
- solubility (mole fraction) (in ethyl acetate, 313.15 K): 0.000419
- solubility (mole fraction) (in ethyl acetate, 318.15 K): 0.000475
- solubility (mole fraction) (in ethyl acetate, 323.15 K): 0.000536
- solubility (mole fraction) (in ethyl acetate, 328.15 K): 0.000605
- solubility (mole fraction) (in ethyl acetate, 333.15 K): 0.000681
- solubility (mole fraction) (in methanol, 288.15 K): 1.44e-05
- solubility (mole fraction) (in methanol, 293.15 K): 1.88e-05
- solubility (mole fraction) (in methanol, 298.15 K): 2.42e-05
- solubility (mole fraction) (in methanol, 303.15 K): 3.14e-05
- solubility (mole fraction) (in methanol, 308.15 K): 4.01e-05
- solubility (mole fraction) (in methanol, 313.15 K): 5.01e-05
- solubility (mole fraction) (in methanol, 318.15 K): 6.33e-05
- solubility (mole fraction) (in methanol, 323.15 K): 7.91e-05
- solubility (mole fraction) (in methanol, 328.15 K): 9.73e-05
- solubility (mole fraction) (in methanol, 333.15 K): 0.000121
- solubility (mole fraction) (in o-xylene, 288.15 K): 2.4e-05
- solubility (mole fraction) (in o-xylene, 293.15 K): 3.15e-05
- solubility (mole fraction) (in o-xylene, 298.15 K): 4.14e-05
- solubility (mole fraction) (in o-xylene, 303.15 K): 5.34e-05
- solubility (mole fraction) (in o-xylene, 308.15 K): 6.87e-05
- solubility (mole fraction) (in o-xylene, 313.15 K): 8.74e-05
- solubility (mole fraction) (in o-xylene, 318.15 K): 0.000109
- solubility (mole fraction) (in o-xylene, 323.15 K): 0.000137
- solubility (mole fraction) (in o-xylene, 328.15 K): 0.000169
- solubility (mole fraction) (in o-xylene, 333.15 K): 0.000208
- solubility (mole fraction) (in propionic acid, 288.15 K): 1.94e-05
- solubility (mole fraction) (in propionic acid, 293.15 K): 2.45e-05
- solubility (mole fraction) (in propionic acid, 298.15 K): 3.15e-05
- solubility (mole fraction) (in propionic acid, 303.15 K): 3.97e-05
- solubility (mole fraction) (in propionic acid, 308.15 K): 4.97e-05
- solubility (mole fraction) (in propionic acid, 313.15 K): 6.16e-05
- solubility (mole fraction) (in propionic acid, 318.15 K): 7.63e-05
- solubility (mole fraction) (in propionic acid, 323.15 K): 9.37e-05
- solubility (mole fraction) (in propionic acid, 328.15 K): 0.000114
- solubility (mole fraction) (in propionic acid, 333.15 K): 0.00014
- solubility (mole fraction) (in toluene, 288.15 K): 1.03e-05
- solubility (mole fraction) (in toluene, 293.15 K): 1.34e-05
- solubility (mole fraction) (in toluene, 298.15 K): 1.84e-05
- solubility (mole fraction) (in toluene, 303.15 K): 2.45e-05
- solubility (mole fraction) (in toluene, 308.15 K): 3.26e-05
- solubility (mole fraction) (in toluene, 313.15 K): 4.29e-05
- solubility (mole fraction) (in toluene, 318.15 K): 5.63e-05
- solubility (mole fraction) (in toluene, 323.15 K): 7.28e-05
- solubility (mole fraction) (in toluene, 328.15 K): 9.4e-05
- solubility (mole fraction) (in toluene, 333.15 K): 0.00012
